Read-outs that look alike come from different tables or passages of the source.
Experiments:
KDM4C = molecular target: T1, KDM4C (Homo sapiens, UniProt Q9H3R0); assay: KDM4C Assay (SAMDI mass spectrometry demethylase assay); type: biochemical; conditions: N-terminal GST-tagged KDM4C 2-372, read-out: 4C IC50
T1 construct: N-terminal GST-tagged KDM4C^2-372 was purchased from BPS Biosciences; GST (N); purchased BPS Biosciences
T1 sequence (Q9H3R0 2-372): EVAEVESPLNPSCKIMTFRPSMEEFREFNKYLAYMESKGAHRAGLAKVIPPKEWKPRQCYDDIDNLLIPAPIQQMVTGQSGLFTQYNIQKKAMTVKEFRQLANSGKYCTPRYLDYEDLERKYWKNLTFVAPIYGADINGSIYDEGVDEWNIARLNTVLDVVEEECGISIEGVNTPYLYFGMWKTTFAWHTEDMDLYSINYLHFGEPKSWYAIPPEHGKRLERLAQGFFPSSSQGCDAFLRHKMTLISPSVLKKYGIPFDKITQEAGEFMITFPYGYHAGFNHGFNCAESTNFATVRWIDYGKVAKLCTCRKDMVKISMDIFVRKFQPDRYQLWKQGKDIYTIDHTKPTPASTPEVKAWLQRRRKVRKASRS
Description: (§1) N-terminal GST-tagged KDM4C^2-372 was purchased from BPS Biosciences. Peptides were synthesized by BioPeptide and all other reagents were purchased from Sigma-Aldrich at the highest level of purity possible. Assays were performed in a 50 μL volume in 384-well V-bottom polypropylene microplates (Greiner) at 25° C. Optimized 1× assay buffer was 50 mM HEPES (pH=8.0), 100 μM sodium ascorbate, 20 mM NaCl, 10 μM ammonium iron sulfate, 1 mM tris(2-carboxyethyl)phosphine (TCEP), 0.002% Tween-20, and 0.005% BSG. For compound screening, 35 μL of KDM4C^2-372 (final concentration, f.c.=5 nM) was added using a Multidrop Combi and preincubated with 1 μL of test compound (f.c.=10 μM) for 30 minutes and subsequently 15 μL of peptide with the following sequence NH2-ARTKQTAR(Kme3)STGGKAPRKQLA(K-Ahx-Biotin)-amide (f.c.=500 nM) and 2-oxoglutarate (f.c.=15 μM) was added by Multidrop Combi to begin the reaction. Reactions proceeded for 150 minutes and were stopped by the addition of 5 μL of formic acid (f.c.=0.5%) using a Multidrop Combi and then analyzed by SAMDI Tech Inc.
(§2) SAMDI Tech analyzed all reactions using self-assembled monoloayer desorption/ionization technology as previously described (Gerard-Levin Z A, Scholle M D, Eisenberg A H, et al.: High-throughput screening of small molecule libraries using SAMDI mass spectrometry. ACS Comb Sci 2011; 13:347-350). Briefly, a 2 μL sample of the stopped demethylase reactions were transferred to a SAMDI array coated with 384 biotin-neutravidin spots using a 384-channel pipet station. The SAMDI arrays were incubated for 1 h in a humidified chamber, followed by washing of the surface with deionized ultra-filtered water (DIUF) and drying under nitrogen. A matrix of 30 mg/ml 2′,4′,6′-Trihydroxyacetophenone monohydrate (THAP) in acetone was applied using a TPP Mosquito 1.2 μL tip by dispensing 50 nL on each of the 384 spots on the array. SAMDI-MS was run using acquisition method ReflectorPositiveUTX. The % conversion of substrate to product was calculated using the AUC of the substrate and product peptide peaks.
(§3) An IC50 value was determined by contacting various concentrations of a test compound with one of the KDM4A, KDM4C or KDMSC enzyme constructs and plotting a dose-response curve which associates the amount of inhibition of the enzyme relative to the concentration of the test compound. From the curve, the IC50 value (which represents the concentration of the test compound necessary to inhibit maximal enzymatic activity by 50%) was determined. Additionally, the slope of the linear range of the plotted curve, which indicates the speed with which the curve rises between the minimum and maximum, was calculated.

KDM5A = molecular target: T2, KDM5A (Homo sapiens, UniProt P29375); assay: KDM5A Assay (SAMDI mass spectrometry demethylase assay); type: biochemical; conditions: C-terminal FLAG-tagged KDM5A 1-1090, read-out: 5A IC50
T2 construct: C-terminal FLAG-tagged KDM5A^1-1090 was purchased from BPS Biosciences; FLAG (C); purchased BPS Biosciences
T2 sequence (P29375 1-1090): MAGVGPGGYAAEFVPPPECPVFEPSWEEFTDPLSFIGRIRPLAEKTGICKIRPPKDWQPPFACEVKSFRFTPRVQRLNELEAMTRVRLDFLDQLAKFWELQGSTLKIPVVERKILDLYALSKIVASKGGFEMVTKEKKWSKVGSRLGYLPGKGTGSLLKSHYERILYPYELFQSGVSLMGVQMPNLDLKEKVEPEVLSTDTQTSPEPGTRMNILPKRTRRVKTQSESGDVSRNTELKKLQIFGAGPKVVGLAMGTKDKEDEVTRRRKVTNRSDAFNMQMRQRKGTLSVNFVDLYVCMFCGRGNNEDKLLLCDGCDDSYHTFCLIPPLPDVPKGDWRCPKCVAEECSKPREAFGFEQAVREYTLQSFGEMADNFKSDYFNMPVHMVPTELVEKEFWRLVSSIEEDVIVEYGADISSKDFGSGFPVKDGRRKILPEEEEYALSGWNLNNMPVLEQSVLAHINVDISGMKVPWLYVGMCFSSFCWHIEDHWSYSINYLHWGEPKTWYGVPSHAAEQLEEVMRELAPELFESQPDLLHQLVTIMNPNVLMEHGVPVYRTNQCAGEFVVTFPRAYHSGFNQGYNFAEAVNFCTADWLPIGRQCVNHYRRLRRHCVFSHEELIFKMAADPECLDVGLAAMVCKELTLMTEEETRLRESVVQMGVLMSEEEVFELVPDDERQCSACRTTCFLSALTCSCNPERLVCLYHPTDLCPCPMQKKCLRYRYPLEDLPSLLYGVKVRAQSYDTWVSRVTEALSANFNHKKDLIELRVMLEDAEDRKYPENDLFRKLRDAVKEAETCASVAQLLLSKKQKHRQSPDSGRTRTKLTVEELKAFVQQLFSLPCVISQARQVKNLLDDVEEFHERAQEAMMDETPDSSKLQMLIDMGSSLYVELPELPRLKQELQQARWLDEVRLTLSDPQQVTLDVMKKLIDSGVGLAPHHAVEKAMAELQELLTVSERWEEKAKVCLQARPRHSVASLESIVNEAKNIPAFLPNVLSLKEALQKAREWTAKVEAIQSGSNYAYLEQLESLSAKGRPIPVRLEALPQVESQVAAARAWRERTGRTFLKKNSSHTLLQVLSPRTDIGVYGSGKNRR
Description: as §1, with “C-terminal FLAG-tagged KDM5A^1-1090” for “N-terminal GST-tagged KDM4C^2-372”, “[…]” for “KDM4C^2-372”, “f.c.=20” for “f.c.=5”, “NH2-ART[Kme-3]QTARKSTGGKA[K-Ahx-Biot]-amide (f.c.=250” for “NH2-ARTKQTAR(Kme3)STGGKAPRKQLA(K-Ahx-Biotin)-amide (f.c.=500”
as §2, §3

Compound: CN1CCC(n2cc(-c3ccccc3)c(Nc3cnccc3C(=O)O)n2)CC1 [Compound 130, 3-(1-(1-methylpiperidin-4-yl)-4-phenyl-1H-pyrazol-3-ylamino) isonicotinic acid]
- IC50 (KDM4C; class symbols): 100 to 1000 nM
- IC50 (KDM5A; class symbols): 1 to 100 nM

Compound: Cc1nn([C@H]2CCN(C)C2)cc1Nc1cnccc1C(=O)NCCO [Compound 121, (S)—N-(2-hydroxyethyl)-3-((3-methyl-1-(1-methylpyrrolidin-3-yl)-1H-pyrazol-4-yl)amino)isonicotinamide]
- IC50 (KDM4C; numeric bound): > 100000 nM
- IC50 (KDM5A; numeric bound): > 100000 nM

Compound: Cc1cn(-c2cccc3c2CCNC3)nc1Nc1cnccc1C(=O)O [Compound 143, 3-(4-methyl-1-(1,2,3,4-tetrahydroisoquinolin-5-yl)-1H-pyrazol-3-ylamino)isonicotinic acid]
- IC50 (KDM4C; class symbols): 100 to 1000 nM
- IC50 (KDM5A; class symbols): 1 to 100 nM

Compound: Cc1c(Nc2cnccc2C(=O)O)cnn1C1CCCN(C2CCC2)CC1 (single isomer, unassigned) [Compound 119]
- IC50 (KDM4C; class symbols): 100 to 1000 nM
- IC50 (KDM5A; class symbols): 1000 to 10000 nM

Compound: Cc1nn(C2CCCN(C3CCC3)CC2)cc1Nc1cnccc1C(=O)O (single isomer, unassigned) [Compound 120]
- IC50 (KDM4C; class symbols): 100 to 1000 nM
- IC50 (KDM5A; class symbols): 100 to 1000 nM

Compound: Cc1c(Nc2cnccc2C(=O)O)cnn1C1CCN(c2ccccc2)CC1 [Compound 106, 3-(5-methyl-1-(1-phenylpiperidin-4-yl)-1H-pyrazol-4-ylamino)isonicotinic acid]
- IC50 (KDM4C; class symbols): 1 to 100 nM
- IC50 (KDM5A; class symbols): 1000 to 10000 nM

Compound: Cc1c(Nc2cnccc2C(=O)O)cnn1C1CCCN(C2CCC2)CC1 (single isomer, unassigned) [Compound 117]
- IC50 (KDM4C; class symbols): 100 to 1000 nM
- IC50 (KDM5A; class symbols): 1000 to 10000 nM

Compound: CCc1c(Nc2cnccc2C(=O)O)cnn1C1CCN(C)CC1 [Compound 123, 3-(5-ethyl-1-(1-methylpiperidin-4-yl)-1H-pyrazol-4-ylamino) isonicotinic acid]
- IC50 (KDM4C; class symbols): 100 to 1000 nM
- IC50 (KDM5A; class symbols): 1000 to 10000 nM

Compound: Cc1c(Nc2cnccc2C(=O)O)cnn1C1CCCNCC1 (single isomer, unassigned) [Compound 113]
- IC50 (KDM4C; class symbols): 100 to 1000 nM
- IC50 (KDM5A; class symbols): 1000 to 10000 nM

Compound: Cc1nn([C@@H]2CNC[C@@H]2C)cc1Nc1cnccc1C(=O)O (single isomer, unassigned) [Compound 109]
- IC50 (KDM4C; class symbols): 1000 to 10000 nM
- IC50 (KDM5A; class symbols): 100 to 1000 nM

Compound: Cc1cn(Cc2ccccc2)nc1Nc1cnccc1C(=O)O [Compound 128, 3-(1-benzyl-4-methyl-1H-pyrazol-3-ylamino)isonicotinic acid]
- IC50 (KDM4C; class symbols): 100 to 1000 nM
- IC50 (KDM5A; class symbols): 100 to 1000 nM

Compound: Cc1nn([C@H]2CNC[C@H]2C)cc1Nc1cnccc1C(=O)O (single isomer, unassigned) [Compound 110]
- IC50 (KDM4C; class symbols): 100 to 1000 nM
- IC50 (KDM5A; class symbols): 1 to 100 nM

Compound: Cc1cnn(C2CCCN(CCN)C2)c1Nc1cnccc1C(=O)O (stereo not drawn) [Compound 140, 3-(1-(1-(2-aminoethyl)piperidin-3-yl)-4-methyl-1H-pyrazol-5-yl-amino)isonicotinic acid]
- IC50 (KDM4C; class symbols): 10000 to 100000 nM
- IC50 (KDM5A; class symbols): 10000 to 100000 nM

Compound: CN(C)CCc1cn(-c2ccccc2)nc1Nc1cnccc1C(=O)O [Compound 144, 3-(4-(2-(dimethylamino)ethyl)-1-phenyl-1H-pyrazol-3-ylamino) isonicotinic acid]
- IC50 (KDM4C; class symbols): 1000 to 10000 nM
- IC50 (KDM5A; class symbols): 1000 to 10000 nM

Compound: O=C(O)c1ccncc1Nc1nn(C2CCNCC2)cc1-c1ccccc1 [Compound 129, 3-(4-phenyl-1-(piperidin-4-yl)-1H-pyrazol-3-ylamino) isonicotinic acid]
- IC50 (KDM4C; class symbols): 100 to 1000 nM
- IC50 (KDM5A; class symbols): 1 to 100 nM

Compound: O=C(O)c1ccncc1Nc1c(-c2ccccc2)cnn1[C@H]1CNc2ccccc2C1 [Compound 137, (R)-3-(4-phenyl-1-(1,2,3,4-tetrahydroquinolin-3-yl)-1H-pyrazol-5-ylamino)isonicotinic acid]
- IC50 (KDM4C; class symbols): 10000 to 100000 nM
- IC50 (KDM5A; class symbols): 10000 to 100000 nM

Compound: Cc1c(Nc2cnccc2C(=O)O)cnn1CCN(C)C [Compound 108]
- IC50 (KDM4C; class symbols): 1000 to 10000 nM
- IC50 (KDM5A; class symbols): 1000 to 10000 nM

Compound: CN1CCC(n2cc(Nc3cnccc3C(=O)O)c(-c3ccccc3)n2)CC1 [Compound 127, 3-(1-(1-methylpiperidin-4-yl)-3-phenyl-1H-pyrazol-4-ylamino)isonicotinic acid]
- IC50 (KDM4C; class symbols): 100 to 1000 nM
- IC50 (KDM5A; class symbols): 100 to 1000 nM

Compound: Cc1cn(C2CCCNC2)nc1Nc1cnccc1C(=O)O (stereo not drawn) [Compound 141, 3-(4-methyl-1-(piperidin-3-yl)-1H-pyrazol-3-ylamino) isonicotinic acid]
- IC50 (KDM4C; class symbols): 100 to 1000 nM
- IC50 (KDM5A; class symbols): 1 to 100 nM

Compound: Cc1nn(C2CCN(c3ccccc3)CC2)cc1Nc1cnccc1C(=O)O [Compound 105, 3-(3-methyl-1-(1-phenylpiperidin-4-yl)-1H-pyrazol-4-ylamino) isonicotinic acid]
- IC50 (KDM4C; class symbols): 100 to 1000 nM
- IC50 (KDM5A; class symbols): 1 to 100 nM

Compound: O=C(O)c1ccncc1Nc1cnn(C2CCN(Cc3ccccc3)C2)c1-c1ccccc1 (stereo not drawn) [Compound 125, 3-(1-(1-benzylpyrrolidin-3-yl)-5-phenyl-1H-pyrazol-4-ylamino) isonicotinic acid]
- IC50 (KDM4C; class symbols): 100 to 1000 nM
- IC50 (KDM5A; class symbols): 100 to 1000 nM
